The values that follow are results of earlier work, collected in patent US20260284237A1, “RADIOLABELED FAPI COMPLEX, AND PREPARATION METHOD THEREFOR AND USE THEREOF” (BEIJING NORMAL UNIVERSITY, priority 2023, published 2026).

SMILES strings stand for the structures.

The conditions of series [1]: background statement.
For series [2], the system named is FAP. As to conditions: background statement.

For `N#C[C@@H]1CC(F)(F)CN1C(=O)CNC(=O)c1ccnc2ccc(OCCCN3CCN(C(=O)CN4CCN(CC(=O)O)CCN(CC(=O)O)CCN(CC(=O)O)CC4)CC3)cc12` [FAPI-04], in series [1], the “tumor uptake as radiotherapeutic drug” value is reported as “relatively low tumor uptake”. In series [2], the “affinity and specificity toward the FAP” value was “favorable affinity and specificity toward the FAP”.
